Data taken from patent US9763957B2, “Autotaxin inhibitors” (Novartis AG, priority 2013, dated 2017).

Target: Recombinant human ATX (Homo sapiens (Human), UniProt Q13822)
Experiment: ATX inhibition assay (choline release, Amplex Red fluorescence)
Format: biochemical
Details: ATX 10 nM, LPC 18:1 10 μM, 37° C., 20 min pre-incubation; mean of n≧2
Protocol: Reagents—LPC (oleoyl (18:1)) was purchased from Avanti Polar Lipids (Alabaster, Ala.) and solubilized in methanol to 20 mM. Amplex Red was obtained from Invitrogen Life Technologies (Paisley, UK) and dissolved in DMSO to 10 mM. Choline oxidase and horseradish peroxidase (HRP) were obtained from Sigma Aldrich (Dorset, UK) and dissolved in HBSS to 20 U/ml and 200 U/ml respectively. All reagents were stored at −20° C. in single use aliquots. All experimental measurements were performed in assay buffer made up immediately prior to use (HBSS, 0.01% BSA essentially fatty acid free).
PerkinElmer EnVision (Fluorescence Intensity/Absorbance Monochromator) or Tecan Infinite 200 PRO series plate reader was used to detect change in fluorescent intensity.
Assessing ATX inhibition—ATX activity was determined by measurement of released choline in reactions containing ATX (10 nM), choline oxidase (0.1 U/ml), HRP (100 U/ml), amplex red (50 μM) and LPC 18:1 (10 μM). Compounds of the invention were prepared as 10 point serial dilutions from 1 μM in duplicate and pre-incubated with ATX at 37° C. for 20 minutes prior to the addition of remaining reagents. The liberated choline was measured from changes in fluorescence intensity (λex 530 nm, λem 590 nm) of the product resurofin at 37° C. every 2 minutes over a 40-minute period. ATX activity was measured as a slope of the linear portion of the progress curve, typically between 14 to 24 minutes.
Data analysis—Slope data was exported to Graphpad prism (Graphpad software, San Diego, Calif.) where data was fitted to equation 1. Y=Bottom+(Top-Bottom)/(1+10^((Log IC50−X)*HillSlope)) Equation 1: […]

Row | SMILES | IC50 [nM]
1 | CCNC(=O)COC1CCCN(C(=O)/C=C/c2ccc(Cl)cc2Cn2nnc(C)n2)C1 (stereo not shown) [Example 49.22, (E)-2-((1-(3-(4-Chloro-2-((5-methyl-2H-tetrazol-2-yl)methyl)phenyl)acryloyl)piperidin-3-yl)oxy)-N-ethylacetamide] | 110
2 | Cc1nnn(Cc2cc(Cl)ccc2/C=C/C(=O)N2CC(c3nnc(C)o3)C2)n1 [Example 85, (E)-3-(4-Chloro-2-((5-methyl-2H-tetrazol-2-yl)methyl)phenyl)-1-(3-(5-methyl-1,3,4-oxadiazol-2-yl)azetidin-1-yl)prop-2-en-1-one] | 289
3 | Cc1nnn(Cc2cc(Cl)ccc2/C=C/C(=O)N2CCCC(O)C2)n1 (stereo not shown) [Example 49.7, (E)-3-(4-Chloro-2-((5-methyl-2H-tetrazol-2-yl)methyl)phenyl)-1-(3-hydroxypiperidin-1-yl)prop-2-en-1-one] | 151
4 | Cc1nnn(Cc2cc(Cl)ccc2COC(=O)N2CCC(c3nnc(C)o3)CC2)n1 [Example 47, 4-Chloro-2-((5-methyl-2H-tetrazol-2-yl)methyl)benzyl 4-(5-methyl-1,3,4-oxadiazol-2-yl)piperidine-1-carboxylate] | 442
5 | Cc1nnn(Cc2cc(Cl)ccc2/C=C/C(=O)N2CCC(Cc3nnc(C)o3)CC2)n1 [Example 127, (E)-3-(4-Chloro-2-((5-methyl-2H-tetrazol-2-yl)methyl)phenyl)-1-(4-((5-methyl-1,3,4-oxadiazol-2-yl)methyl)piperidin-1-yl)prop-2-en-1-one] | 60
6 | Cc1nnn(Cc2cc(Cl)ccc2/C=C/C(=O)N2CCC(n3nnnc3C)CC2)n1 [Example 12, (E)-3-(4-Chloro-2-((5-methyl-2H-tetrazol-2-yl)methyl)phenyl)-1-(4-(5-methyl-1H-tetrazol-1-yl)piperidin-1-yl)prop-2-en-1-one] | 157
7 | Cc1nnn(Cc2cc(Cl)ccc2/C=C/C(=O)N2CCC(c3nnc(CN4CCCCC4)o3)CC2)n1 [Example 122, (E)-3-(4-Chloro-2-((5-methyl-2H-tetrazol-2-yl)methyl)phenyl)-1-(4-(5-(piperidin-1-ylmethyl)-1,3,4-oxadiazol-2-yl)piperidin-1-yl)prop-2-en-1-one] | 58
8 | Cc1nnn(Cc2cc(Cl)ccc2/C=C/C(=O)N2CCC(CCO)CC2)n1 [Example 49.6, (E)-3-(4-Chloro-2-((5-methyl-2H-tetrazol-2-yl)methyl)phenyl)-1-(4-(2-hydroxyethyl)piperidin-1-yl)prop-2-en-1-one] | 110
9 | Cc1nnn(Cc2cc(Cl)ccc2/C=C/C(=O)N2CCC(c3coc(C)n3)CC2)n1 [Example 27, (E)-3-(4-Chloro-2-((5-methyl-2H-tetrazol-2-yl)methyl)phenyl)-1-(4-(2-methyloxazol-4-yl)piperidin-1-yl)prop-2-en-1-one] | 59
10 | Cc1nnc(Cc2cc(Cl)ccc2/C=C/C(=O)N2CCC(Cc3nnc(C)o3)CC2)o1 [Example 13, (E)-3-(4-Chloro-2-((5-methyl-1,3,4-oxadiazol-2-yl)methyl)phenyl)-1-(4-((5-methyl-1,3,4-oxadiazol-2-yl)methyl)piperidin-1-yl)prop-2-en-1-one] | 2360
11 | Cc1nnn(Cc2cc(Cl)ccc2/C=C/C(=O)N2CCN(c3ncccc3C(=O)N3CCCC3)CC2)n1 [Example 49.29, (E)-3-(4-Chloro-2-((5-methyl-2H-tetrazol-2-yl)methyl)phenyl)-1-(4-(3-(pyrrolidine-1-carbonyl)pyridin-2-yl)piperazin-1-yl)prop-2-en-1-one] | 78

Compounds with a lower IC50, results first:

Row | IC50 [nM] | SMILES
12 | 52 | CCCNC(=O)COC1CCN(C(=O)/C=C/c2ccc(Cl)cc2Cn2nnc(C)n2)CC1 [Example 49.30, (E)-2-((1-(3-(4-Chloro-2-((5-methyl-2H-tetrazol-2-yl)methyl)phenyl)acryloyl)piperidin-4-yl)oxy)-N-propylacetamide]
13 | 47 | COc1ccc(CN(C)C2CCN(C(=O)/C=C/c3ccc(C(F)(F)F)cc3Cn3nnc(C)n3)CC2)cc1 [Example 119, (E)-1-(4-((4-Methoxybenzyl)(methyl)amino)piperidin-1-yl)-3-(2-((5-methyl-2H-tetrazol-2-yl)methyl)-4-(trifluoromethyl)phenyl)prop-2-en-1-one]
14 | 34 | Cc1nnn(Cc2cc(Cl)ccc2/C=C/C(=O)N2CCN(Cc3cnn(C)c3)CC2)n1 [Example 140.9, (E)-3-(4-Chloro-2-((5-methyl-2H-tetrazol-2-yl)methyl)phenyl)-1-(4-((1-methyl-1H-pyrazol-4-yl)methyl)piperazin-1-yl)prop-2-en-1-one]
15 | 20 | Cc1nnn(Cc2cc(Cl)ccc2/C=C/C(=O)N2CCN(c3ncccn3)CC2)n1 [Example 49.1, (E)-3-(4-Chloro-2-((5-methyl-2H-tetrazol-2-yl)methyl)phenyl)-1-(4-(pyrimidin-2-yl)piperazin-1-yl)prop-2-en-1-one]
16 | 19 | Cc1nnn(Cc2cc(C(F)(F)F)ccc2/C=C/C(=O)N2CCC(N(C)C(=O)c3ccc(F)cc3)CC2)n1 [Example 87]
17 | 18 | Cc1nnn(Cc2cc(Cl)ccc2/C=C/C(=O)N2CCCC(c3nc(C(C)C)no3)C2)n1 (single isomer, unassigned) [Example 34a, (R or S, E)-3-(4-Chloro-2-((5-methyl-2H-tetrazol-2-yl)methyl)phenyl)-1-(3-(3-isopropyl-1,2,4-oxadiazol-5-yl)piperidin-1-yl)prop-2-en-1-one]
18 | 17 | Cc1ncn(C2CCN(C(=O)/C=C/c3ccc(C(F)(F)F)cc3Cn3nnc(C)n3)CC2)n1 [Example 37, (E)-1-(4-(3-Methyl-1H-1,2,4-triazol-1-yl)piperidin-1-yl)-3-(2-((5-methyl-2H-tetrazol-2-yl)methyl)-4-(trifluoromethyl)phenyl)prop-2-en-1-one]
19 | 13 | Cc1nnn(Cc2cc(Cl)ccc2/C=C/C(=O)N2CCC(CNC(=O)CCc3cc(O)no3)CC2)n1 [Example 147, (E)-N-((1-(3-(4-Chloro-2-((5-methyl-2H-tetrazol-2-yl)methyl)phenyl)acryloyl)piperidin-4-yl)methyl)-3-(3-hydroxyisoxazol-5-yl)propanamide]
20 | 13 | Cc1nnn(Cc2cc(Cl)ccc2/C=C/C(=O)N2CCC(CCNC(=O)c3c[nH]nn3)CC2)n1 [Example 145, (E)-N-(2-(1-(3-(4-Chloro-2-((5-methyl-2H-tetrazol-2-yl)methyl)phenyl)acryloyl)piperidin-4-yl)ethyl)-1H-1,2,3-triazole-4-carboxamide]
21 | 12 | Cc1nnn(Cc2cc(OC(F)(F)F)ccc2/C=C/C(=O)N2CCC(Cc3nnc(C)o3)CC2)n1 [Example 56, (E)-1-(4-((5-Methyl-1,3,4-oxadiazol-2-yl)methyl)piperidin-1-yl)-3-(2-((5-methyl-2H-tetrazol-2-yl)methyl)-4-(trifluoromethoxy)phenyl)prop-2-en-1-one]
22 | 8.8 | COC(=O)C1CCN(C(=O)/C=C/c2ccc(C(F)(F)F)cc2Cn2nnc(C)n2)CC1 [Example 67, (E)-Methyl 1-(3-(2-((5-methyl-2H-tetrazol-2-yl)methyl)-4-(trifluoromethyl)phenyl)acryloyl)piperidine-4-carboxylate]
23 | 8.1 | COCC(=O)N(C)C1CCN(C(=O)/C=C/c2ccc(C(F)(F)F)cc2Cn2nnc(C)n2)CC1 [Example 84, (E)-2-Methoxy-N-methyl-N-(1-(3-(2-((5-methyl-2H-tetrazol-2-yl)methyl)-4-(trifluoromethyl)phenyl)acryloyl)piperidin-4-yl)acetamide]
24 | 6.9 | CCOc1c(NCCC2CN(C(=O)/C=C/c3ccc(Cl)cc3Cn3nnc(C)n3)CCO2)c(=O)c1=O (stereo not shown) [Example 150, (E)-3-((2-(4-(3-(4-Chloro-2-((5-methyl-2H-tetrazol-2-yl)methyl)phenyl)acryloyl)morpholin-2-yl)ethyl)amino)-4-ethoxycyclobut-3-ene-1,2-dione]
25 | 6 | Cc1nnn(Cc2cc(Cl)ccc2/C=C/C(=O)N2CCC(C(O)c3ccc(Cl)cc3)CC2)n1 (racemic) [Example 66, rac-(E)-3-(4-Chloro-2-((5-methyl-2H-tetrazol-2-yl)methyl)phenyl)-1-(4-((4-chlorophenyl)(hydroxy)methyl)piperidin-1-yl)prop-2-en-1-one]
26 | 5.3 | Cc1nnn(Cc2cc(C(F)(F)F)ccc2/C=C/C(=O)N2CCC(c3nnc(C4CCC4)o3)CC2)n1 [Example 103, (E)-1-(4-(5-Cyclobutyl-1,3,4-oxadiazol-2-yl)piperidin-1-yl)-3-(2-((5-methyl-2H-tetrazol-2-yl)methyl)-4-(trifluoromethyl)phenyl)prop-2-en-1-one]
27 | 5.3 | Cc1nnn(Cc2cc(C(F)(F)F)ccc2/C=C/C(=O)N2CCC(NC(=O)CCCCCc3cnn[nH]3)CC2)n1 [Example 156, (E)-N-(1-(3-(2-((5-Methyl-2H-tetrazol-2-yl)methyl)-4-(trifluoromethyl)phenyl)acryloyl)piperidin-4-yl)-6-(1H-1,2,3-triazol-5-yl)hexanamide]
28 | 5 | Cc1cc(CN2CCN(C(=O)/C=C/c3ccc(C(F)(F)F)cc3Cn3nnc(C)n3)CC2)on1 [Example 101, (E)-3-(2-((5-Methyl-2H-tetrazol-2-yl)methyl)-4-(trifluoromethyl)phenyl)-1-(4-((3-methylisoxazol-5-yl)methyl)piperazin-1-yl)prop-2-en-1-one]
